Test results: ChEMBL document CHEMBL1201862, “PubChem BioAssay data set” (2004)
Values belong to the molecule of their own block, whether it stands above or below them. Active and inactive are the calls of the source.

Legend:
HEK293 [1] = experiment: cells; type: functional, cell-based; conditions: Homo sapiens
[2] = biological target: Nucleotide-binding oligomerization domain-containing protein 2 (Homo sapiens, UniProt Q9HC29); experiment: NOD2 signaling inhibitors, cell-based, luminescence, uHTS, HEK293 (AID 1566); type: functional
Chain of Nucleotide-binding oligomerization domain-containing protein 2 (Q9HC29 whole entry, the tested form may be a part): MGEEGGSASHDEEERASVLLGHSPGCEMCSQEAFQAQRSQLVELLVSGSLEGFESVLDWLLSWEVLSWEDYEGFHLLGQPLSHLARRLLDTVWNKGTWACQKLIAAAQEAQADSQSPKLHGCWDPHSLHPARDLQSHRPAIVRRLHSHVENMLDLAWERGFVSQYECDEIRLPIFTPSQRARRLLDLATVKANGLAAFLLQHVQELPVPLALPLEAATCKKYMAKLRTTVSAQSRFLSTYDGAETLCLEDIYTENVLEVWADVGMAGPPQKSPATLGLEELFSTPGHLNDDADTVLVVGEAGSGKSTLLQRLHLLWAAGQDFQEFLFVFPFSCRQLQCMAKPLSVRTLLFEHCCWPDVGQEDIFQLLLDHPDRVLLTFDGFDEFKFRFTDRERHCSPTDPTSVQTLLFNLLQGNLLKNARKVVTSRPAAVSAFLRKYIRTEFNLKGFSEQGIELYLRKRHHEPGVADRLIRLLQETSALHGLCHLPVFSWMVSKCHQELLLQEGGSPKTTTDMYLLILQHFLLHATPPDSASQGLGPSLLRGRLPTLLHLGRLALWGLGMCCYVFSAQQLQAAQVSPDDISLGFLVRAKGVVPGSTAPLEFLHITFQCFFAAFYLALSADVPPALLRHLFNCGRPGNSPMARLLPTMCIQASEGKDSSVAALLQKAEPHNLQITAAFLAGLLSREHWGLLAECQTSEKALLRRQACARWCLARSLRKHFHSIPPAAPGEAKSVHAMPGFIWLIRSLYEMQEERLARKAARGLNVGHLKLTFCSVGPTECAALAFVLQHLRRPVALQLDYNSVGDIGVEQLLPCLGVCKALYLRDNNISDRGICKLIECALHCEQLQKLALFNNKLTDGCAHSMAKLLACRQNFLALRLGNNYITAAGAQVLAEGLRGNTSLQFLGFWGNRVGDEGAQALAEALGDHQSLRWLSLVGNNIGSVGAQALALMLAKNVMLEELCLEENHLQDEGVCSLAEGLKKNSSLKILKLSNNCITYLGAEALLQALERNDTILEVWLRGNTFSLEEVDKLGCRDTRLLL

[3] = Luminescence Cell-Based Dose Retest to Confirm Inhibitors of Cancer Stem Cells. [Related pubchem assays (depositor defined):AID2717, AID2721]; type: functional; conditions: Homo sapiens
HEK293 [4] = experiment: NOD1 signaling inhibitors, primary screen, cell-based, luminescence, uHTS (AID 1578); type: functional; conditions: Homo sapiens
[5] = biological target: Luciferin 4-monooxygenase (Photinus pyralis, UniProt P08659); experiment: Counter Screen for Luciferase-based Assay Positives. [Related pubchem assays: 620, 618, 411 ]
Chain of Luciferin 4-monooxygenase (P08659 whole entry): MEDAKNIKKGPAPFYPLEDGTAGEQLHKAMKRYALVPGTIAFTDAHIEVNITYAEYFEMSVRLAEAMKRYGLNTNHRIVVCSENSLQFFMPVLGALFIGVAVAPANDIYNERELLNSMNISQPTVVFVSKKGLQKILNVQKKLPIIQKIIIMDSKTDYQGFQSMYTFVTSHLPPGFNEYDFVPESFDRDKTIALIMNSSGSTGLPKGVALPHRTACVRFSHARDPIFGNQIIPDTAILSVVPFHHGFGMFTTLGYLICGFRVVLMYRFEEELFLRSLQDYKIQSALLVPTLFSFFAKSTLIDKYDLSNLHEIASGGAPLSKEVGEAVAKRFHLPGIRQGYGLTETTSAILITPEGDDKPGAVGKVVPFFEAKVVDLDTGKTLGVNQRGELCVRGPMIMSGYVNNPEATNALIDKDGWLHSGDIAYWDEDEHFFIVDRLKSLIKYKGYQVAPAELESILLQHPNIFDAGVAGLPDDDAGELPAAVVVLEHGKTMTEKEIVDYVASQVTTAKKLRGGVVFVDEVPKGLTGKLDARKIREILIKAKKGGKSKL

HEK293 [6] = experiment: NOD2 signaling inhibitors in MDP-stimulated cells, cell-based, uHTS, luminescence (AID 2001); type: functional; conditions: Homo sapiens
HT-1080 = experiment: cytotoxicity in HT1080 fibrosarcoma cells, cell-based, fluorescence readout (AID 620); type: functional; conditions: Homo sapiens
HEK293 [7] = experiment: cells; type: functional, cell-based; conditions: Homo sapiens; remark: listed apart in the source
[8] = biological target: COUP transcription factor 2 (Homo sapiens, UniProt P24468); experiment: Luminescence-based cell-based high throughput dose response assay to identify inhibitors of COUP-TFII (NR2F2).; type: functional;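 also: HEK293 cells transiently cotransfected with COUP-TFII expression vector and reporter; luciferase reporter luminescence driven by COUP-TFII from the pX2-168 reporter plasmid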
Chain of COUP transcription factor 2 (P24468 whole entry): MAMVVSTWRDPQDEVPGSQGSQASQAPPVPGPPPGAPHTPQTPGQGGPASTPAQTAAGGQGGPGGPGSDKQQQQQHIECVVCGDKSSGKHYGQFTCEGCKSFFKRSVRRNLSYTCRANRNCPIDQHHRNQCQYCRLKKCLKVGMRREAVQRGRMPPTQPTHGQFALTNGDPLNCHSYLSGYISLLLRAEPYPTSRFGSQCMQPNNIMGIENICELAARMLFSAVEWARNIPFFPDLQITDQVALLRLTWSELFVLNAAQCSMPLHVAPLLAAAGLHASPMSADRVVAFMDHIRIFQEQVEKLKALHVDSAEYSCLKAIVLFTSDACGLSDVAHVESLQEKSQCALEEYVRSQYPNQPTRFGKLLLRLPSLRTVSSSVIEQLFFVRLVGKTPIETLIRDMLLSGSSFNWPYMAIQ

HEK293 [9] = experiment: cells; type: functional, cell-based; conditions: Homo sapiens; remark: listed apart in the source
[10] = biological target: NAD-dependent protein deacylase sirtuin-5, mitochondrial (Homo sapiens, UniProt Q9NXA8); experiment: SIRT5 desuccinylase inhibitors, dose response, biochemical, fluorescence imaging, cherry-pick, set 5 (AID 720591);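 also: desuccinylation of succinyl peptide AMC substrate read as fluorescence after trypsin release; potency of inhibitors that lower fluorescence and may act on trypsin instead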
Chain of NAD-dependent protein deacylase sirtuin-5, mitochondrial (Q9NXA8 whole entry): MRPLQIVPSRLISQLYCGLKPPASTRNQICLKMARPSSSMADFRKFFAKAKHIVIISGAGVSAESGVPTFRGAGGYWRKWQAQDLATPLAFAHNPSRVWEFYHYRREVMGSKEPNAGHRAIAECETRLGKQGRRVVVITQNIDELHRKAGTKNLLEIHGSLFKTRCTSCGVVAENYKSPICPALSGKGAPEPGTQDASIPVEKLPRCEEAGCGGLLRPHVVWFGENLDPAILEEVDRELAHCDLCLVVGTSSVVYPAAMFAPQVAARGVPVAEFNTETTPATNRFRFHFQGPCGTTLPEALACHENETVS

[11] = P. falciparum Dd2 growth inhibitors, dose response, SYBR Green, dry powder samples, set 9 (AID 1159568); type: functional, cell-based
[12] = biological target: T1, Aryl hydrocarbon receptor (Homo sapiens, UniProt P35869); experiment: Luminescence-based cell-based high throughput dose response assay for activators of the Aryl Hydrocarbon Receptor (AHR). [Related pubchem assays: 2796 (Primary screen (AHR activators in singlicate)), 2845 (Confirmation screen (AHR activators in triplicate)), 434939 (Counterscreen (PXR activators in triplicate)), 2804 (Summary (AHR activators))]; type: ADME
T1 sequence (P35869 whole entry): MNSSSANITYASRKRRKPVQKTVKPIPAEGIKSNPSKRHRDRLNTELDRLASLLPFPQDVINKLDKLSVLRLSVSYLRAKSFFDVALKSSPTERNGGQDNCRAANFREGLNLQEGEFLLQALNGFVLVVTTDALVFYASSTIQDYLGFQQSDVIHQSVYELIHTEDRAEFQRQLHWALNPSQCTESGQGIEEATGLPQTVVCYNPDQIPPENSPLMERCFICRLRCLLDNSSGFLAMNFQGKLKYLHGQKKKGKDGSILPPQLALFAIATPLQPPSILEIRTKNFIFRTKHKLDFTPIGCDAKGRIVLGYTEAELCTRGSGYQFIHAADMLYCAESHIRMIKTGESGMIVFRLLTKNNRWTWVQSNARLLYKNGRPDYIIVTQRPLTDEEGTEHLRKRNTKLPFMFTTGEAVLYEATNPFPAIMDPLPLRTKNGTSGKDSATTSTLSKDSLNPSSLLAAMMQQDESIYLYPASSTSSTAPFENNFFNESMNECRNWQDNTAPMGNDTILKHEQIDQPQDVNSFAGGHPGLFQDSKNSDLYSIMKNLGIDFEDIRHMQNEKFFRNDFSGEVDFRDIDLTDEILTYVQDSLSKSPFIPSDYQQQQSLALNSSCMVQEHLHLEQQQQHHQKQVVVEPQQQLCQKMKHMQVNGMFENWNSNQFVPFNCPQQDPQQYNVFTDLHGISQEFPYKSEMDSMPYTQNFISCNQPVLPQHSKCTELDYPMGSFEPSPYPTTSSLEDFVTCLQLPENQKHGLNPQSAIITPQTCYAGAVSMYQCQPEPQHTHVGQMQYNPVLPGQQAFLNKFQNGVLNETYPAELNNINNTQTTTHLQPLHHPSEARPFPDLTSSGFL

[13] = biological target: T2, Tyrosine-protein phosphatase non-receptor type 7 (Homo sapiens, UniProt P35236); experiment: inhibitors of human HePTP phosphatase, […], biochemical, absorbance, leukemia target (AID 521); type: functional
T2 sequence (P35236 whole entry): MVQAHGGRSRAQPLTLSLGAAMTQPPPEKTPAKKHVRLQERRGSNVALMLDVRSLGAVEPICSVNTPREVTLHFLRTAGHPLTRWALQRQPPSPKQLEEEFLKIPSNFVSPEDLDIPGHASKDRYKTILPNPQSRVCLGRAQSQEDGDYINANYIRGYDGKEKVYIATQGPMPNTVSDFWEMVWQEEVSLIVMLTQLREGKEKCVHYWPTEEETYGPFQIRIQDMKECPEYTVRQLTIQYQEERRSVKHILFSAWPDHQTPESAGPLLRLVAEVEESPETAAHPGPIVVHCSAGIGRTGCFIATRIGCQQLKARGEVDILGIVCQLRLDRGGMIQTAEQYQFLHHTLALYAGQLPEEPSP

AC50 [10]: > 30 µM (inactive)
SMILES: CCCCC[C@@H](C)N1C[C@H](COCc2ccccc2)Oc2cc(N3CCC[C@@H]3CO)ccc2S1(=O)=O

EC50 [12]: 1.76 µM (active)
SMILES: COc1ccc(C(=O)Nc2cc(OC)c(NC(=O)c3ccco3)cc2OC)cc1

IC50 [13]: > 100 µM (not active)
SMILES: COn1cnnc1-c1ccccc1

Further lines, the molecule ahead of its results:

SMILES: CC(=O)Nc1ccc(SCC(=O)c2cc(C)n(Cc3cccs3)c2C)cc1
IC50 (HEK293 [1]): > 20 µM (inactive) | EC50 [2]: > 20 µM (inactive) | AC50 [3]: 1.77 µM (active) | EC50 (HEK293 [4]): > 20 µM (inactive) | EC50 [5]: 3.59 µM (active) | IC50 (HEK293 [6]): > 20 µM (inactive) | EC50 (HT-1080): > 50 µM (not active) | IC50 (HEK293 [7]): > 20 µM (inactive) | IC50 [8]: 23.6 µM (inactive) | IC50 (HEK293 [9]): > 20 µM (inactive)

SMILES: COc1ccc2c3c([nH]c2c1)[C@H](CO)N(C(C)=O)CC31CN(Cc2ccccc2Cl)C1
AC50 [11]: 3 µM (active)

SMILES: Cc1ccc(S(=O)(=O)N2CC[C@H]3[C@H](CO)Nc4ccc(-c5cccc(C(=O)N(C)C)c5)cc4[C@H]32)cc1
AC50 [11]: 3.07 µM (active)
